Experimental data taken from US12723063B2, “GIPR-agonist compounds” (Eli Lilly and Company, priority 2019, dated 2026).
*1 amine or outer side, *2 acyl side, *3 side chain or, on linkers, in order; H or OH if unused. Where a SMILES comes first, the peptide text is derived from it. Side-chain parts run from the residue outwards. [ ]: non-standard residue; d: D form. The star is where a group is joined. C20 diacid = O=C(O)CCCCCCCCCCCCCCCCCCC(=O)*; γGlu = O=C(O)[C@H](CCC(=O)[*:2])N[*:1]; αMeL = CC(C)C[C@](C)(N)C(=O)O; AEEA = NCCOCCOCC(=O)O; Aib = CC(C)(N)C(=O)O

Molecular target: T1, human GIPR (Homo sapiens, UniProt P48546)
T1 construct: expressed in transfected cells; crude membranes
T1 sequence (P48546 22-466): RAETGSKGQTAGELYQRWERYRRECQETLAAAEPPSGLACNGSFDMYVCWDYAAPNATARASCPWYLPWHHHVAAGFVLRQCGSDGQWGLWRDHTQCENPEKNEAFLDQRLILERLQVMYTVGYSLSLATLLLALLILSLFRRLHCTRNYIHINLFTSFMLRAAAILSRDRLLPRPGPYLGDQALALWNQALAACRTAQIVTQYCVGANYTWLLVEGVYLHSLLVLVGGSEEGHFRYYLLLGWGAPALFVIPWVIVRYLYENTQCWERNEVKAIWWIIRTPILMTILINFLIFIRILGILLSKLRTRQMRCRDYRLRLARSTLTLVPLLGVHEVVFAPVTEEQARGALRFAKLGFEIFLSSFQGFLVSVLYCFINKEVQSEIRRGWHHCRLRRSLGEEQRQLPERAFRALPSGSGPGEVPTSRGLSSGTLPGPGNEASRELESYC
Experiment: [125I]-GIP binding, SPA with WGA beads, 0.1% bacitracin
Settings: geometric mean, read-out: hGIPR Ki
In short: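 Ki values are geometric means (SEM, n independent days), derived from four-parameter nonlinear regression of IC50. Membranes came from hGIPR-expressing CHO cells.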

Compound | Ki [nM]
CC[C@H](C)[C@H](NC(=O)[C@H](Cc1ccccc1)NC(=O)[C@@H](NC(=O)CNC(=O)[C@H](CCC(=O)O)NC(=O)C(C)(C)NC(=O)[C@@H](N)Cc1ccc(O)cc1)[C@@H](C)O)C(=O)N[C@@H](CO)C(=O)N[C@@H](CC(=O)O)C(=O)N[C@@H](Cc1ccc(O)cc1)C(=O)N[C@@H](CO)C(=O)N[C@H](C(=O)N[C@@](C)(CC(C)C)C(=O)N[C@@H](CC(C)C)C(=O)N[C@@H](CC(=O)O)C(=O)N[C@@H](CCCCN)C(=O)N[C@@H](CCCCNC(=O)COCCOCCNC(=O)COCCOCCNC(=O)CC[C@H](NC(=O)CCCCCCCCCCCCCCCCCCC(=O)O)C(=O)O)C(=O)N[C@@H](Cc1c[nH]cn1)C(=O)N[C@@H](CCC(N)=O)C(=O)NC(C)(C)C(=O)N[C@@H](CCC(=O)O)C(=O)N[C@@H](Cc1ccccc1)C(=O)N[C@H](C(=O)N[C@@H](CCC(=O)O)C(=O)N[C@@H](Cc1ccc(O)cc1)C(=O)N[C@@H](CC(C)C)C(=O)N[C@@H](CC(C)C)C(=O)N[C@@H](CCC(=O)O)C(=O)N[C@@H](CCC(N)=O)C(=O)NCC(=O)N1CCC[C@H]1C(=O)N[C@@H](CO)C(=O)N[C@@H](CO)C(=O)NCC(=O)N[C@@H](C)C(=O)N1CCC[C@H]1C(=O)N1CCC[C@H]1C(=O)N1CCC[C@H]1C(=O)N[C@@H](CO)C(N)=O)C(C)C)[C@@H](C)CC [Example 63] (H-Y[Aib]EGTFISDYSI[αMeL]LDKK([AEEA-AEEA-γGlu-C20 diacid])HQ[Aib]EFVEYLLEQGPSSGAPPPS-NH2) | 0.0248
CC[C@H](C)[C@H](NC(=O)[C@H](Cc1ccccc1)NC(=O)[C@@H](NC(=O)CNC(=O)[C@H](CCC(=O)O)NC(=O)C(C)(C)NC(=O)[C@@H](N)Cc1ccc(O)cc1)[C@@H](C)O)C(=O)N[C@@H](CO)C(=O)N[C@@H](CC(=O)O)C(=O)N[C@@H](Cc1ccc(O)cc1)C(=O)N[C@@H](CO)C(=O)N[C@H](C(=O)N[C@@](C)(CC(C)C)C(=O)N[C@@H](CC(C)C)C(=O)N[C@@H](CC(=O)O)C(=O)N[C@@H](CCCCN)C(=O)N[C@@H](CCCCNC(=O)COCCOCCNC(=O)COCCOCCNC(=O)CC[C@H](NC(=O)CCCCCCCCCCCCCCCCCCC(=O)O)C(=O)O)C(=O)N[C@@H](Cc1c[nH]cn1)C(=O)N[C@@H](CCC(N)=O)C(=O)NC(C)(C)C(=O)N[C@@H](CCC(=O)O)C(=O)N[C@@H](Cc1ccccc1)C(=O)N[C@H](C(=O)N[C@@H](CCC(=O)O)C(=O)N[C@@H](Cc1ccc(O)cc1)C(=O)N[C@@H](CC(C)C)C(=O)N[C@@H](CC(C)C)C(=O)N[C@@H](CCC(=O)O)C(=O)N[C@H](C(=O)NCC(=O)N1CCC[C@H]1C(=O)N[C@@H](CO)C(=O)N[C@@H](CO)C(=O)NCC(=O)N[C@@H](C)C(=O)N1CCC[C@H]1C(=O)N1CCC[C@H]1C(=O)N1CCC[C@H]1C(=O)N[C@@H](CO)C(N)=O)[C@@H](C)O)C(C)C)[C@@H](C)CC [Example 64] (H-Y[Aib]EGTFISDYSI[αMeL]LDKK([AEEA-AEEA-γGlu-C20 diacid])HQ[Aib]EFVEYLLETGPSSGAPPPS-NH2) | 0.022
CC[C@H](C)[C@H](NC(=O)[C@H](Cc1ccccc1)NC(=O)[C@@H](NC(=O)CNC(=O)[C@H](CCC(=O)O)NC(=O)C(C)(C)NC(=O)[C@@H](N)Cc1ccc(O)cc1)[C@@H](C)O)C(=O)N[C@@H](CO)C(=O)N[C@@H](CC(=O)O)C(=O)N[C@@H](Cc1ccc(O)cc1)C(=O)N[C@@H](CO)C(=O)N[C@H](C(=O)N[C@@](C)(CC(C)C)C(=O)N[C@@H](CC(C)C)C(=O)N[C@@H](CC(=O)O)C(=O)N[C@@H](CCCCN)C(=O)N[C@@H](CCCCNC(=O)COCCOCCNC(=O)COCCOCCNC(=O)CC[C@H](NC(=O)CCCCCCCCCCCCCCCCCCC(=O)O)C(=O)O)C(=O)N[C@@H](Cc1c[nH]cn1)C(=O)N[C@@H](CCC(N)=O)C(=O)NC(C)(C)C(=O)N[C@@H](CCC(=O)O)C(=O)N[C@@H](Cc1ccccc1)C(=O)N[C@H](C(=O)N[C@@H](CCC(=O)O)C(=O)N[C@@H](Cc1ccc(O)cc1)C(=O)N[C@@H](CC(C)C)C(=O)N[C@@H](CC(C)C)C(=O)N[C@@H](CCC(=O)O)C(=O)N[C@@H](C)C(=O)NCC(=O)N1CCC[C@H]1C(=O)N[C@@H](CO)C(=O)N[C@@H](CO)C(=O)NCC(=O)N[C@@H](C)C(=O)N1CCC[C@H]1C(=O)N1CCC[C@H]1C(=O)N1CCC[C@H]1C(=O)N[C@@H](CO)C(N)=O)C(C)C)[C@@H](C)CC [Example 65] (H-Y[Aib]EGTFISDYSI[αMeL]LDKK([AEEA-AEEA-γGlu-C20 diacid])HQ[Aib]EFVEYLLEAGPSSGAPPPS-NH2) | 0.0316
CC[C@H](C)[C@H](NC(=O)[C@H](Cc1ccccc1)NC(=O)[C@@H](NC(=O)CNC(=O)[C@H](CCC(=O)O)NC(=O)C(C)(C)NC(=O)[C@@H](N)Cc1ccc(O)cc1)[C@@H](C)O)C(=O)N[C@@H](CO)C(=O)N[C@@H](CC(=O)O)C(=O)N[C@@H](Cc1ccc(O)cc1)C(=O)N[C@@H](CO)C(=O)N[C@H](C(=O)N[C@@](C)(CC(C)C)C(=O)N[C@@H](CC(C)C)C(=O)N[C@@H](CC(=O)O)C(=O)N[C@@H](CCCCN)C(=O)N[C@@H](CCCCNC(=O)COCCOCCNC(=O)COCCOCCNC(=O)CC[C@H](NC(=O)CCCCCCCCCCCCCCCCCCC(=O)O)C(=O)O)C(=O)N[C@@H](Cc1c[nH]cn1)C(=O)N[C@@H](CCC(N)=O)C(=O)NC(C)(C)C(=O)N[C@@H](CC(=O)O)C(=O)N[C@@H](Cc1ccccc1)C(=O)N[C@H](C(=O)N[C@@H](CCC(=O)O)C(=O)N[C@@H](Cc1ccc(O)cc1)C(=O)N[C@@H](CC(C)C)C(=O)N[C@@H](CC(C)C)C(=O)N[C@@H](CCC(=O)O)C(=O)N[C@H](C(=O)NCC(=O)N1CCC[C@H]1C(=O)N[C@@H](CO)C(=O)N[C@@H](CO)C(=O)NCC(=O)N[C@@H](C)C(=O)N1CCC[C@H]1C(=O)N1CCC[C@H]1C(=O)N1CCC[C@H]1C(=O)N[C@@H](CO)C(N)=O)[C@@H](C)O)C(C)C)[C@@H](C)CC [Example 66] (H-Y[Aib]EGTFISDYSI[αMeL]LDKK([AEEA-AEEA-γGlu-C20 diacid])HQ[Aib]DFVEYLLETGPSSGAPPPS-NH2) | 0.0866
CC[C@H](C)[C@H](NC(=O)[C@H](Cc1ccccc1)NC(=O)[C@@H](NC(=O)CNC(=O)[C@H](CCC(=O)O)NC(=O)C(C)(C)NC(=O)[C@@H](N)Cc1ccc(O)cc1)[C@@H](C)O)C(=O)N[C@@H](CO)C(=O)N[C@@H](CC(=O)O)C(=O)N[C@@H](Cc1ccc(O)cc1)C(=O)N[C@@H](CO)C(=O)N[C@H](C(=O)N[C@@](C)(CC(C)C)C(=O)N[C@@H](CC(C)C)C(=O)N[C@@H](CC(=O)O)C(=O)N[C@@H](CCCCN)C(=O)N[C@@H](CCCCNC(=O)COCCOCCNC(=O)COCCOCCNC(=O)CC[C@H](NC(=O)CCCCCCCCCCCCCCCCCCC(=O)O)C(=O)O)C(=O)N[C@@H](Cc1c[nH]cn1)C(=O)N[C@@H](CCC(N)=O)C(=O)NC(C)(C)C(=O)N[C@@H](CC(=O)O)C(=O)N[C@@H](Cc1ccccc1)C(=O)N[C@H](C(=O)N[C@@H](CCC(=O)O)C(=O)N[C@@H](Cc1ccc(O)cc1)C(=O)N[C@@H](CC(C)C)C(=O)N[C@@H](CC(C)C)C(=O)N[C@@H](CCC(=O)O)C(=O)N[C@@H](C)C(=O)NCC(=O)N1CCC[C@H]1C(=O)N[C@@H](CO)C(=O)N[C@@H](CO)C(=O)NCC(=O)N[C@@H](C)C(=O)N1CCC[C@H]1C(=O)N1CCC[C@H]1C(=O)N1CCC[C@H]1C(=O)N[C@@H](CO)C(N)=O)C(C)C)[C@@H](C)CC [Example 68] (H-Y[Aib]EGTFISDYSI[αMeL]LDKK([AEEA-AEEA-γGlu-C20 diacid])HQ[Aib]DFVEYLLEAGPSSGAPPPS-NH2) | 0.0948
CC[C@H](C)[C@H](NC(=O)[C@H](Cc1ccccc1)NC(=O)[C@@H](NC(=O)CNC(=O)[C@H](CCC(=O)O)NC(=O)C(C)(C)NC(=O)[C@@H](N)Cc1ccc(O)cc1)[C@@H](C)O)C(=O)N[C@@H](CO)C(=O)N[C@@H](CC(=O)O)C(=O)N[C@@H](Cc1ccc(O)cc1)C(=O)N[C@@H](CO)C(=O)N[C@H](C(=O)N[C@@](C)(CC(C)C)C(=O)N[C@@H](CC(C)C)C(=O)N[C@@H](CC(=O)O)C(=O)N[C@@H](CCCCN)C(=O)N[C@@H](CCCCNC(=O)COCCOCCNC(=O)COCCOCCNC(=O)CC[C@H](NC(=O)CCCCCCCCCCCCCCCCCCC(=O)O)C(=O)O)C(=O)N[C@@H](Cc1c[nH]cn1)C(=O)N[C@@H](CCC(N)=O)C(=O)NC(C)(C)C(=O)N[C@@H](CC(=O)O)C(=O)N[C@@H](Cc1ccccc1)C(=O)N[C@H](C(=O)N[C@@H](CCC(=O)O)C(=O)N[C@@H](Cc1ccc(O)cc1)C(=O)N[C@@H](CC(C)C)C(=O)N[C@@H](CC(C)C)C(=O)N[C@@H](CCC(=O)O)C(=O)NCC(=O)NCC(=O)N1CCC[C@H]1C(=O)N[C@@H](CO)C(=O)N[C@@H](CO)C(=O)NCC(=O)N[C@@H](C)C(=O)N1CCC[C@H]1C(=O)N1CCC[C@H]1C(=O)N1CCC[C@H]1C(=O)N[C@@H](CO)C(N)=O)C(C)C)[C@@H](C)CC [Example 69] (H-Y[Aib]EGTFISDYSI[αMeL]LDKK([AEEA-AEEA-γGlu-C20 diacid])HQ[Aib]DFVEYLLEGGPSSGAPPPS-NH2) | 0.0406
